Source: patent US12427157B2, “Methods for treatment of diseases involving acidic or hypoxic diseased tissues” (Cybrexa 1, Inc., priority 2018, dated 2025)
Residues, ends and D or L forms follow the SMILES beside them. *: point of attachment. X8 = Cn1ncnc1[C@H]1c2n[nH]c(=O)c3cc(F)cc(c23)N(CNC(=O)OCC2(S*)CCC2)[C@@H]1c1ccc(F)cc1; X4 = C[C@H](COC(=O)NCN1c2cc(F)cc3c(=O)[nH]nc(c23)[C@H](c2ncnn2C)[C@H]1c1ccc(F)cc1)S*; X1 = Cn1ncnc1[C@H]1c2n[nH]c(=O)c3cc(F)cc(c23)N(CNC(=O)OCCS*)[C@@H]1c1ccc(F)cc1

Tests used:
DLD-1 BRCA2−/− cells = assay: Growth delay assay; format: cell-based, Human; settings: pH 7.4, BRCA (−/−) DLD-1, 96 h
Description: Cells were plated in 96 well black walled-clear bottom plates (Griener), DLD-1 WT cells at 2500 cells per well, DLD-1 BRCA2−/− at 5000 cells per well, in growth media containing 10% FBS. Cells were allowed to adhere at room temperature for 60 minutes before returning to a 37 C, 5% CO2 incubator. After 24 hours, media was removed and replaced with fresh growth media containing various drug concentrations. Each drug concentration was added in triplicate. Non-drug treated controls contained growth media only. Cells were returned to the incubator. Ninety-six hours after addition of drug, cells were fixed with 4% paraformaldehyde for 20 minutes and stained with Hoechst at 1 ug/mL. The plates were imaged on a Cytation 5 auto imager (BioTek) and cells were counted using CellProfiler (http://cellprofiler.org). The percent cell growth delay was calculated and data plotted using GraphPad Prism.

PARP = PARP (Homo sapiens, UniProt P09874); assay: Enzymatic Assay 2: HT Universal Chemiluminescent PARP Assay of cleaved compounds; settings: read-out: IC50 Enzymatic Assay 2; Examples cleaved per Example A (crude cleavage solution); R^8H starting materials as such;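 note: PARP reaction with activated DNA run 1 h at room temperature, product detected via streptavidin-HRP and luminescence endpoint reading on a plate reader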
PARP, sequence (P09874 whole entry): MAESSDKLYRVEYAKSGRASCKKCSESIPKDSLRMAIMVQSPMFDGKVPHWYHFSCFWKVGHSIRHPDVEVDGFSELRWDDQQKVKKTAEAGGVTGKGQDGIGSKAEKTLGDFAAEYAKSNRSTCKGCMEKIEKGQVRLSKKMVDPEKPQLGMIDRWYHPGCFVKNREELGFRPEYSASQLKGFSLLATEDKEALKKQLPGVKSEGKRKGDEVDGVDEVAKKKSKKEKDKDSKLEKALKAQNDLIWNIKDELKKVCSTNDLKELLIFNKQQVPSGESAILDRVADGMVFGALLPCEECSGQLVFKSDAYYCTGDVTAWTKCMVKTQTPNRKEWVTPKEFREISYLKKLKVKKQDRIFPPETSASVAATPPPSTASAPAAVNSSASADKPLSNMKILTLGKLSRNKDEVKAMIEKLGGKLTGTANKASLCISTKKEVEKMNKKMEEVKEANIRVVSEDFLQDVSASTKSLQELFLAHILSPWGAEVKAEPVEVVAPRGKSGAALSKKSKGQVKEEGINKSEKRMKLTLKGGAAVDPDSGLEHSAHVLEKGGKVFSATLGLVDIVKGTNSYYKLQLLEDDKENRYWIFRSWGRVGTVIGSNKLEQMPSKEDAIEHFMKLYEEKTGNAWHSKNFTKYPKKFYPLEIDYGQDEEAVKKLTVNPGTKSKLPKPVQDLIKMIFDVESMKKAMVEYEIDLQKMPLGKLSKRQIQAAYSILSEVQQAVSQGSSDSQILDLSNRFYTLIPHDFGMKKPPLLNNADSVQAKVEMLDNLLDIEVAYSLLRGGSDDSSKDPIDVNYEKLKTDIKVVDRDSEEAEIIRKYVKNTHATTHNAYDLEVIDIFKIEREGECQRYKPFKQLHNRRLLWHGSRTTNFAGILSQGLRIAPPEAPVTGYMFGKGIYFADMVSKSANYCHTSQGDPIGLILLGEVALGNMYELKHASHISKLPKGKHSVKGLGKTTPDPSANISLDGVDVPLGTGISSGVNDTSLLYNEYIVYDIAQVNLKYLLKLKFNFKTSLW

SMILES | IC50 (DLD-1 BRCA2−/− cells) [nM] | IC50 (PARP) [µM]
CC(C)C[C@H](NC(=O)[C@H](Cc1ccc(O)cc1)NC(=O)[C@H](C)NC(=O)[C@H](CCCNC(=N)N)NC(=O)[C@H](Cc1c[nH]c2ccccc12)NC(=O)[C@@H]1CCCN1C(=O)[C@H](CC(N)=O)NC(=O)[C@H](CCC(N)=O)NC(=O)[C@H](CC(=O)O)NC(=O)[C@H](CC(=O)O)NC(=O)[C@H](C)N)C(=O)N[C@@H](CC(=O)O)C(=O)N[C@@H](CC(C)C)C(=O)N[C@@H](CC(C)C)C(=O)N[C@@H](Cc1ccccc1)C(=O)N1CCC[C@H]1C(=O)N[C@H](C(=O)N[C@@H](CC(=O)O)C(=O)N[C@H](C(=O)N[C@@H](CC(C)C)C(=O)N[C@@H](CC(C)C)C(=O)N[C@@H](CC(C)C)C(=O)N[C@@H](CC(=O)O)C(=O)N[C@@H](CC(C)C)C(=O)N[C@@H](CC(C)C)C(=O)N[C@@H](Cc1c[nH]c2ccccc12)C(=O)N[C@@H](CSS[C@H](C)COC(=O)NCN1c2cc(F)cc3c(=O)[nH]nc(c23)[C@H](c2ncnn2C)[C@H]1c1ccc(F)cc1)C(=O)NCC(=O)O)[C@@H](C)O)[C@@H](C)O [Example 40] | 64 | 0.0011
CC[C@H](C)[C@H](NC(=O)[C@@H]1CCCN1C(=O)[C@H](CC(N)=O)NC(=O)[C@H](CCC(N)=O)NC(=O)[C@H](CCC(=O)O)NC(=O)[C@H](C)N)C(=O)N[C@@H](Cc1ccc(O)cc1)C(=O)N[C@@H](Cc1c[nH]c2ccccc12)C(=O)N[C@@H](C)C(=O)N[C@@H](CCCNC(=N)N)C(=O)N[C@@H](Cc1ccc(O)cc1)C(=O)N[C@@H](C)C(=O)N[C@@H](CC(=O)O)C(=O)N[C@@H](Cc1c[nH]c2ccccc12)C(=O)N[C@@H](CC(C)C)C(=O)N[C@@H](Cc1ccccc1)C(=O)N[C@H](C(=O)N[C@H](C(=O)N1CCC[C@H]1C(=O)N[C@@H](CC(C)C)C(=O)N[C@@H](CC(C)C)C(=O)N[C@@H](CC(C)C)C(=O)N[C@@H](CC(C)C)C(=O)N[C@@H](CC(=O)O)C(=O)N[C@@H](CC(C)C)C(=O)N[C@@H](C)C(=O)N[C@@H](CC(C)C)C(=O)N[C@@H](CC(C)C)C(=O)N[C@H](C(=O)N[C@@H](CC(=O)O)C(=O)N[C@@H](C)C(=O)N[C@@H](CC(=O)O)C(=O)N[C@@H](CCC(=O)O)C(=O)N[C@@H](CSSC1(COC(=O)NCN2c3cc(F)cc4c(=O)[nH]nc(c34)[C@H](c3ncnn3C)[C@H]2c2ccc(F)cc2)CCC1)C(=O)NCC(=O)O)C(C)C)[C@@H](C)O)[C@@H](C)O [Example 39] (H-AEQNPIYWARYADWLFTTPLLLLDLALLVDADEC(X8)G-OH; N-terminus and C-terminus assumed) | 104 | 0.003
CC(C)C[C@H](NC(=O)[C@H](Cc1ccc(O)cc1)NC(=O)[C@H](C)NC(=O)[C@H](CCCNC(=N)N)NC(=O)[C@H](Cc1c[nH]c2ccccc12)NC(=O)[C@@H]1CCCN1C(=O)[C@H](CC(N)=O)NC(=O)[C@H](CCC(N)=O)NC(=O)[C@H](CC(=O)O)NC(=O)[C@H](CC(=O)O)NC(=O)[C@H](C)N)C(=O)N[C@@H](CC(=O)O)C(=O)N[C@@H](CC(C)C)C(=O)N[C@@H](CC(C)C)C(=O)N[C@@H](Cc1ccccc1)C(=O)N1CCC[C@H]1C(=O)N[C@H](C(=O)N[C@@H](CC(=O)O)C(=O)N[C@H](C(=O)N[C@@H](CC(C)C)C(=O)N[C@@H](CC(C)C)C(=O)N[C@@H](CC(C)C)C(=O)N[C@@H](CC(=O)O)C(=O)N[C@@H](CC(C)C)C(=O)N[C@@H](CC(C)C)C(=O)N[C@@H](Cc1c[nH]c2ccccc12)C(=O)N[C@@H](CSSCCOC(=O)NCN1c2cc(F)cc3c(=O)[nH]nc(c23)[C@H](c2ncnn2C)[C@H]1c1ccc(F)cc1)C(=O)NCC(=O)O)[C@@H](C)O)[C@@H](C)O [Example 16] | 84 | 0.00061
CC(C)C[C@H](NC(=O)[C@H](Cc1ccc(O)cc1)NC(=O)[C@H](C)NC(=O)[C@H](CCCNC(=N)N)NC(=O)[C@H](Cc1c[nH]c2ccccc12)NC(=O)[C@@H]1CCCN1C(=O)[C@H](CC(N)=O)NC(=O)[C@H](CCC(N)=O)NC(=O)[C@H](CC(=O)O)NC(=O)[C@H](CC(=O)O)NC(=O)[C@H](C)N)C(=O)N[C@@H](CC(=O)O)C(=O)N[C@@H](CC(C)C)C(=O)N[C@@H](CC(C)C)C(=O)N[C@@H](Cc1ccccc1)C(=O)N1CCC[C@H]1C(=O)N[C@H](C(=O)N[C@@H](CC(=O)O)C(=O)N[C@H](C(=O)N[C@@H](CC(C)C)C(=O)N[C@@H](CC(C)C)C(=O)N[C@@H](CC(C)C)C(=O)N[C@@H](CC(=O)O)C(=O)N[C@@H](CC(C)C)C(=O)N[C@@H](CC(C)C)C(=O)N[C@@H](Cc1c[nH]c2ccccc12)C(=O)N[C@@H](CSS[C@@H](C)COC(=O)NCN1c2cc(F)cc3c(=O)[nH]nc(c23)[C@H](c2ncnn2C)[C@H]1c1ccc(F)cc1)C(=O)NCC(=O)O)[C@@H](C)O)[C@@H](C)O [Example 42] | 53 | 0.0014
CC[C@H](C)[C@H](NC(=O)[C@@H]1CCCN1C(=O)[C@H](CC(N)=O)NC(=O)[C@H](CCC(N)=O)NC(=O)[C@H](CCC(=O)O)NC(=O)[C@H](C)N)C(=O)N[C@@H](Cc1ccc(O)cc1)C(=O)N[C@@H](Cc1c[nH]c2ccccc12)C(=O)N[C@@H](C)C(=O)N[C@@H](CCCNC(=N)N)C(=O)N[C@@H](Cc1ccc(O)cc1)C(=O)N[C@@H](C)C(=O)N[C@@H](CC(=O)O)C(=O)N[C@@H](Cc1c[nH]c2ccccc12)C(=O)N[C@@H](CC(C)C)C(=O)N[C@@H](Cc1ccccc1)C(=O)N[C@H](C(=O)N[C@H](C(=O)N1CCC[C@H]1C(=O)N[C@@H](CC(C)C)C(=O)N[C@@H](CC(C)C)C(=O)N[C@@H](CC(C)C)C(=O)N[C@@H](CC(C)C)C(=O)N[C@@H](CC(=O)O)C(=O)N[C@@H](CC(C)C)C(=O)N[C@@H](C)C(=O)N[C@@H](CC(C)C)C(=O)N[C@@H](CC(C)C)C(=O)N[C@H](C(=O)N[C@@H](CC(=O)O)C(=O)N[C@@H](C)C(=O)N[C@@H](CC(=O)O)C(=O)N[C@@H](CCC(=O)O)C(=O)N[C@@H](CSSCCOC(=O)NCN1c2cc(F)cc3c(=O)[nH]nc(c23)[C@H](c2ncnn2C)[C@H]1c1ccc(F)cc1)C(=O)NCC(=O)O)C(C)C)[C@@H](C)O)[C@@H](C)O [Example 12] (H-AEQNPIYWARYADWLFTTPLLLLDLALLVDADEC(X1)G-OH; N-terminus and C-terminus assumed) | 162 | 0.00047
CC[C@H](C)[C@H](NC(=O)[C@@H]1CCCN1C(=O)[C@H](CC(N)=O)NC(=O)[C@H](CCC(N)=O)NC(=O)[C@H](CCC(=O)O)NC(=O)[C@H](C)N)C(=O)N[C@@H](Cc1ccc(O)cc1)C(=O)N[C@@H](Cc1c[nH]c2ccccc12)C(=O)N[C@@H](C)C(=O)N[C@@H](CCCNC(=N)N)C(=O)N[C@@H](Cc1ccc(O)cc1)C(=O)N[C@@H](C)C(=O)N[C@@H](CC(=O)O)C(=O)N[C@@H](Cc1c[nH]c2ccccc12)C(=O)N[C@@H](CC(C)C)C(=O)N[C@@H](Cc1ccccc1)C(=O)N[C@H](C(=O)N[C@H](C(=O)N1CCC[C@H]1C(=O)N[C@@H](CC(C)C)C(=O)N[C@@H](CC(C)C)C(=O)N[C@@H](CC(C)C)C(=O)N[C@@H](CC(C)C)C(=O)N[C@@H](CC(=O)O)C(=O)N[C@@H](CC(C)C)C(=O)N[C@@H](C)C(=O)N[C@@H](CC(C)C)C(=O)N[C@@H](CC(C)C)C(=O)N[C@H](C(=O)N[C@@H](CC(=O)O)C(=O)N[C@@H](C)C(=O)N[C@@H](CC(=O)O)C(=O)N[C@@H](CCC(=O)O)C(=O)N[C@@H](CSS[C@H](C)COC(=O)NCN1c2cc(F)cc3c(=O)[nH]nc(c23)[C@H](c2ncnn2C)[C@H]1c1ccc(F)cc1)C(=O)NCC(=O)O)C(C)C)[C@@H](C)O)[C@@H](C)O [Example 14] (H-AEQNPIYWARYADWLFTTPLLLLDLALLVDADEC(X4)G-OH; N-terminus and C-terminus assumed) | 72 | 0.0005
